Source: patent US10294212B2 (CURADEV PHARMA PRIVATE LTD., priority 2013, dated 2019)

How the values were obtained:
[1] = Brain penetration in rats; assay type: in vivo, Sprague-Dawley rats; conditions: rat, single i.v. 10 mg/kg
Experimental: ii. Brain penetration in rats: Early and accurate prediction of drug penetration of the blood brain barrier is vital for the development of drugs targeting the central nervous system. Accordingly, ability of the compounds of the invention to penetrate the blood brain barrier was tested according to the methods well established in the art (Giorgetti et al., (2010) JPET 333:748-757, 2010). Briefly, Sprague-Dawley rats (n=3 per time point studied) were administered a single intravenous dose of the test compounds 2 or 97 formulated in 40% PEG and 20% PG at 10 mg/kg. Three rats were used for each of the following time points post-dosing: 0.5 hr, 1.5 hr and 3.0 hrs. First, blood was collected during deep anesthesia in heparinized tubes, and then animals were sacrificed and their brains were harvested. The brains were then pulverized in liquid nitrogen and homogenized in fixed volumes of ice cold homogenization buffer (10% Acetonitrile, 0.1% formic acid in water). Plasma was separated from blood using standard procedures. Plasma and brain concentrations of test compounds 2 and 97 were determined by LC/MS/MS using an API 4000 or AP15500 Qtrap mass spectrometer. Brain/Plasma ratio of test compounds 2 and 97 were determined after normalizing brain weight and buffer volume.

[2] = system: CT-26 tumor cells; experiment: Antitumor activity in syngeneic CT26/Balb/C tumor model; assay type: in vivo, Balb/c mice; conditions: for reduction of tumor growth: vs control animals
Experimental: Tumor volume reduction by the test compounds was evaluated in a syngeneic CT26/Balb/C tumor model as described below. Balb/c mice were purchased from Vivo Bio Tech, Hyderabad, India, and housed in sterile conditions using an individually ventilated caging system manufactured by Citizen Industries Limited, Ahmedabad, India. Mice were quarantined for at least 7 days before experimentation.
Mouse colorectal tumor forming cells, CT-26 cells (ATCC, USA), were cultured in DMEM and 10% FBS medium supplemented with lx non-essential amino acid (HiMedia) in an incubator maintained at 37QC with 95% humidity and 5% CO2. One million (1×10^6) live syngeneic CT-26 cells suspended in 0.2 ml of […] were injected subcutaneously in the right flank of each Balb/c mouse (age 6-8 weeks, weight: about 18-20 g) on day 1 under anesthesia. Eight to ten mice were used per experimental group. Subcutaneous cells formed localized tumors. Animals were visually inspected twice a day. Tumor measurements were initiated 7 days post injection using Vernier calipers. Tumor sizes at day 7 ranged typically from 80-150 mm^3. Tumor dimensions were subsequently measured every 3 to 4 days and tumor volume was determined. Assuming tumors to be ellipsoid, tumor volume was calculated using the formula: V=(D×d×d)/2
Where D is longest diameter in mm, and d is shortest diameter in mm.
When the average tumor volume in the mice reached 100-120 mm^3, tumor bearing mice were randomized for treatment with either test compound or vehicle alone. Test compounds were formulated generally in normal saline comprising Polyethylene Glycol (PEG400), Propylene glycol (PG) and Dimethyl Acetamide (DACM) at pH 4.5-5.0 and dosed orally at ranges 40-75 mg/kg (dose volume—5 mL/kg) twice a day. Solutions of the compounds were prepared immediately before dosing the animals. In general, tumor volume was measured at various times post-dosing from day 1 to day 34.
A non-limiting example is provided. Tumor bearing mice were dosed orally twice a day at 40 mg/kg body weight with either vehicle control or test compound 2 formulated in 30% Polyethylene Glycol (PEG-400), 20% Propylene glycol (PG) in normal saline. Tumors were measured and tumor volumes were determined at 1, 4, 6, 9, 11, and 14 days after the first dose as described above. Animals were sacrificed on day 14. Tumor and blood samples were harvested for further analysis. Just prior to animal sacrifice, blood was drawn retro-orbitally into a tube containing 0.2% EDTA for plasma collection. The harvested tumors were weighed and snap frozen in liquid nitrogen immediately. Plasma KYN concentrations are measured for pharmacokinetic analysis using LC/MS/MS using an API4000 mass spectrometer (Applied Biosystems) coupled to a Shimadzu Prominence LC system fitted with a C18 column.

[3] = system: CT-26 tumor cells; experiment: Combination therapy with Doxorubicin in CT-26 syngeneic tumor model; assay type: in vivo, Balb/c mice; conditions: vs DOXO or compound alone
Experimental: Test compounds were evaluated in mice syngeneic tumor models described above for usefulness in combination therapy with a chemotheraputic agent, Doxorubicin (DOXO, Sterling Biotech, India).
Tumor bearing Balb/c mice as described earlier were randomized to receive vehicle alone, test compound alone, DOXO alone, or test compound in combination with DOXO. Animals in DOXO treated arm were injected intraperitoneally on day 1 with DOXO formulated in normal saline (7.5 mg/kg). Five days later, the animals were dosed twice a day orally with either a test compound or vehicle alone during the test period till the end of the experiment. A second smaller dose of DOXO at 3 or 4 mg/Kg was administered to the DOXO-treated animals about 3 weeks after the first DOXO dose. Tumor volume was measured in animals as described above.
Non-limiting examples follow. Test compound 97 was formulated in 40% PEG, 20% PG, 10% DACM in normal saline. From day 5 after the first DOXO dose was administered till the end of the study period on day 35, the animals were dosed twice a day orally with compound 97 (75 mg/kg). Three weeks later, the DOXO-treated animals were injected i.p. with a second dose of DOXO (3 mg/kg). Tumor volume was monitored as described above. Tumor tissues and final blood samples were harvested from the mice 4 hours after the final test compound dose. […]

SMILES	blood brain barrier penetration [1]	tumor growth ([2]; 40 mg/kg oral BID, over 14 days, vs vehicle)	tumor volume, combination with DOXO ([3]; 75 mg/kg oral BID + DOXO 7.5 then 3 mg/kg i.p.)	reduction of tumor growth ([2]; 75 mg/kg oral BID)	tumor volume, combination with DOXO ([3]; 50 mg/kg oral BID + DOXO)	reduction of tumor growth ([2]; 50 mg/kg oral BID)
Nc1oc2cnccc2c1Nc1ccc(F)c(Cl)c1 [Compound 2, N^3-(3-Chloro-4-fluoro-phenyl)-furo[2,3-c]pyridine-2,3-diamine]	capable of penetrating blood brain barrier	significantly decreased tumor growth	–	–	–	–
Nc1oc2c(-c3ccncc3)nccc2c1Nc1ccc(F)c(Cl)c1 [Compound 97, N^3-(3-Chloro-4-fluorophenyl)-7-(pyridin-4-yl)furo[2,3-c]pyridine-2,3-diamine]	capable of penetrating blood brain barrier	–	greater reduction in tumor volume	26%-38	–	–
Nc1oc2c(-c3ccncc3)nccc2c1Nc1ccc(F)c(F)c1 [Compound 184, N^3-(3,4-difluorophenyl)-7-(pyridin-4-yl)furo[2,3-c]pyridine-2,3-diamine]	–	–	–	–	greater reduction in tumor volume	26%-38
